From ChEMBL document CHEMBL4507284, “Data for DCP probe BI-1230” (2021)
Active and inactive are the calls of the source. The calls are words filed in the database; no cut-off is given here.

Legend:
[1] = target: Rho-associated protein kinase 2 (Homo sapiens) (UniProt O75116); details: Compound concentration 1000.0 nM
[2] = target: Mitogen-activated protein kinase 7 (Homo sapiens) (UniProt Q13164); details: Compound concentration 1000.0 nM
[3] = target: Serine/threonine-protein kinase TAO3 (Homo sapiens) (UniProt Q9H2K8); details: Compound concentration 1000.0 nM
[4] = target: Dual specificity protein kinase CLK3 (Homo sapiens) (UniProt P49761); details: Compound concentration 1000.0 nM
Dual specificity protein kinase CLK3 (Homo sapiens), sequence (P49761 whole entry, looked up): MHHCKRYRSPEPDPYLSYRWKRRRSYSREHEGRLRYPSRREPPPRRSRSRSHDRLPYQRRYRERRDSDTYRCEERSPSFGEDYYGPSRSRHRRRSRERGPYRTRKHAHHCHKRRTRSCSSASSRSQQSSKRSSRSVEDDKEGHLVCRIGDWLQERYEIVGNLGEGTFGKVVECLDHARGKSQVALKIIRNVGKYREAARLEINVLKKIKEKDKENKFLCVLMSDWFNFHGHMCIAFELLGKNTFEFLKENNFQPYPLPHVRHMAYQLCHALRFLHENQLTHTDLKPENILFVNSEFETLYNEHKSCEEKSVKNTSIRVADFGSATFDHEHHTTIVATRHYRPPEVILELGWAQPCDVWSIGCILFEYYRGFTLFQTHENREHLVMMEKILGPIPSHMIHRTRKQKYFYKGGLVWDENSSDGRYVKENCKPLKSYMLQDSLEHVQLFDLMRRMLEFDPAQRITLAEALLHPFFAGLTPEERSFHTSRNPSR

[5] = target: 5-hydroxytryptamine receptor 1D (Homo sapiens) (UniProt P28221); details: Compound concentration 10.0 uM
5-hydroxytryptamine receptor 1D (Homo sapiens), sequence (P28221 whole entry): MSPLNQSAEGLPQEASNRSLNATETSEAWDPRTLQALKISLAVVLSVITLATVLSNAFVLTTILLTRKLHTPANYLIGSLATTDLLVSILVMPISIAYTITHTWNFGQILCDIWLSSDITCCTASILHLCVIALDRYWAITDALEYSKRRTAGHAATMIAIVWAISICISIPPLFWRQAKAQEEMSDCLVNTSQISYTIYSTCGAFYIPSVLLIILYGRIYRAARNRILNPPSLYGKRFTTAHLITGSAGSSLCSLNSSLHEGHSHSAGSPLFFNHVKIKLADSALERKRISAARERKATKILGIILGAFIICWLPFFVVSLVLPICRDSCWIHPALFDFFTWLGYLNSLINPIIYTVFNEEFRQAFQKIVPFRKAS

[6] = target: Ephrin type-B receptor 4 (Homo sapiens) (UniProt P54760); details: Compound concentration 1000.0 nM
[7] = target: Aurora kinase A (Homo sapiens) (UniProt O14965); details: Compound concentration 1000.0 nM
[8] = tested on: Tyrosine-protein kinase ABL1 (Homo sapiens), P00519 [M351T]; details: Compound concentration 1000.0 nM
[9] = target: Serine/threonine-protein kinase tousled-like 2 (Homo sapiens) (UniProt Q86UE8); details: Compound concentration 1000.0 nM
[10] = target: Cyclin-dependent kinase 8 (Homo sapiens) (UniProt P49336); details: Compound concentration 1000.0 nM
[11] = target: Tyrosine-protein kinase Tec (Homo sapiens) (UniProt P42680); details: Compound concentration 1000.0 nM
[12] = target: Mitogen-activated protein kinase kinase kinase kinase 5 (Homo sapiens) (UniProt Q9Y4K4); details: Compound concentration 1000.0 nM
[13] = target: Tyrosine-protein kinase Fer (Homo sapiens) (UniProt P16591); details: Compound concentration 1000.0 nM
[14] = target: Tyrosine-protein kinase Fes/Fps (Homo sapiens) (UniProt P07332); details: Compound concentration 1000.0 nM
[15] = target: Calcium/calmodulin-dependent protein kinase type 1 (Homo sapiens) (UniProt Q14012); details: Compound concentration 1000.0 nM
[16] = tested on: Tyrosine-protein kinase ABL1 (Homo sapiens), P00519 [H396P]; details: Compound concentration 1000.0 nM
[17] = target: Serine/threonine-protein kinase PAK 4 (Homo sapiens) (UniProt O96013); details: Compound concentration 1000.0 nM
[18] = target: Ribosomal protein S6 kinase alpha-3 (Homo sapiens) (UniProt P51812); details: Compound concentration 1000.0 nM
[19] = target: Angiopoietin-1 receptor (Homo sapiens) (UniProt Q02763); details: Compound concentration 1000.0 nM
[20] = target: Mitogen-activated protein kinase kinase kinase kinase 2 (Homo sapiens) (UniProt Q12851); details: Compound concentration 1000.0 nM
[21] = target: Mitogen-activated protein kinase kinase kinase kinase 4 (Homo sapiens) (UniProt O95819); details: Compound concentration 1000.0 nM
[22] = target: Muscarinic acetylcholine receptor M4 (Homo sapiens) (UniProt P08173); details: Compound concentration 10.0 uM
[23] = target: Serine/threonine-protein kinase PAK 5 (Homo sapiens) (UniProt Q9P286); details: Compound concentration 1000.0 nM
[24] = target: D(3) dopamine receptor (Homo sapiens) (UniProt P35462); details: Compound concentration 10.0 uM
D(3) dopamine receptor (Homo sapiens), sequence (P35462 whole entry): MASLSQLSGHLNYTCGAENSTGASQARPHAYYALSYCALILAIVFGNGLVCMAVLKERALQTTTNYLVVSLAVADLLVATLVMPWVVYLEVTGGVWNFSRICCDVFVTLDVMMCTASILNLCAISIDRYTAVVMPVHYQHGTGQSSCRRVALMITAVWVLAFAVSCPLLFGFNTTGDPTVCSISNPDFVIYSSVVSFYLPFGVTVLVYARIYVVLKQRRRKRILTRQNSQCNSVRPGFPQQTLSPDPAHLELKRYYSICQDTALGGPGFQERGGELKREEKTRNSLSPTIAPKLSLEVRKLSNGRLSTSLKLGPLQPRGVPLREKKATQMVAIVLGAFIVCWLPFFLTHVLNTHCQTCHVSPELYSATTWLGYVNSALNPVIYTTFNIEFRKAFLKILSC

[25] = target: Serine/threonine-protein kinase Sgk2 (Homo sapiens) (UniProt Q9HBY8); details: Compound concentration 1000.0 nM
[26] = target: Dual specificity mitogen-activated protein kinase kinase 6 (Homo sapiens) (UniProt P52564); details: Compound concentration 1000.0 nM
[27] = target: Serine/threonine-protein kinase N1 (Homo sapiens) (UniProt Q16512); details: Compound concentration 1000.0 nM
[28] = target: Myosin light chain kinase family member 4 (Homo sapiens) (UniProt Q86YV6); details: Compound concentration 1000.0 nM
[29] = target: Cyclin-dependent kinase 11B (Homo sapiens) (UniProt P21127); details: Compound concentration 1000.0 nM
[30] = target: Membrane-associated tyrosine- and threonine-specific cdc2-inhibitory kinase (Homo sapiens) (UniProt Q99640); details: Compound concentration 1000.0 nM
Membrane-associated tyrosine- and threonine-specific cdc2-inhibitory kinase (Homo sapiens), sequence (Q99640 whole entry): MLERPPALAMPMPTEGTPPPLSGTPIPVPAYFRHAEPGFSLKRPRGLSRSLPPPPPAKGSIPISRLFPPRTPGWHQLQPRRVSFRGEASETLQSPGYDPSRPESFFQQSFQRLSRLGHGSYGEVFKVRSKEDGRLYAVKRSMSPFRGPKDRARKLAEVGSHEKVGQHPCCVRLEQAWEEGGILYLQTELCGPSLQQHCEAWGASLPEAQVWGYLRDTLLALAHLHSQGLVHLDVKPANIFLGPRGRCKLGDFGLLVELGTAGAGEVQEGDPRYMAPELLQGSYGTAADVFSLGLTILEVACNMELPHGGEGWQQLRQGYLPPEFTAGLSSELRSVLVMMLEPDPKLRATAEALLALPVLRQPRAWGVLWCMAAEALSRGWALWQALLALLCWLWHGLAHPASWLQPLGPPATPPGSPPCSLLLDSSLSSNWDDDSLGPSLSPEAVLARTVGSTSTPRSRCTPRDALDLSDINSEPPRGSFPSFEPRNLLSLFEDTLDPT

[31] = tested on: Tyrosine-protein kinase ABL1 (Homo sapiens), P00519 [E255K]; details: Compound concentration 1000.0 nM
[32] = tested on: Tyrosine-protein kinase ABL1 (Homo sapiens), P00519 [F317L]; details: Compound concentration 1000.0 nM
[33] = target: Serine/threonine-protein kinase SIK1 (Homo sapiens) (UniProt P57059); details: Compound concentration 1000.0 nM
[34] = target: NT-3 growth factor receptor (Homo sapiens) (UniProt Q16288); details: Compound concentration 1000.0 nM
[35] = tested on: Mast/stem cell growth factor receptor Kit (Homo sapiens), P10721 [L576P]; details: Compound concentration 1000.0 nM
[36] = target: Non-receptor tyrosine-protein kinase TYK2 (Homo sapiens) (UniProt P29597); details: Compound concentration 1000.0 nM
Non-receptor tyrosine-protein kinase TYK2 (Homo sapiens), sequence (P29597 whole entry): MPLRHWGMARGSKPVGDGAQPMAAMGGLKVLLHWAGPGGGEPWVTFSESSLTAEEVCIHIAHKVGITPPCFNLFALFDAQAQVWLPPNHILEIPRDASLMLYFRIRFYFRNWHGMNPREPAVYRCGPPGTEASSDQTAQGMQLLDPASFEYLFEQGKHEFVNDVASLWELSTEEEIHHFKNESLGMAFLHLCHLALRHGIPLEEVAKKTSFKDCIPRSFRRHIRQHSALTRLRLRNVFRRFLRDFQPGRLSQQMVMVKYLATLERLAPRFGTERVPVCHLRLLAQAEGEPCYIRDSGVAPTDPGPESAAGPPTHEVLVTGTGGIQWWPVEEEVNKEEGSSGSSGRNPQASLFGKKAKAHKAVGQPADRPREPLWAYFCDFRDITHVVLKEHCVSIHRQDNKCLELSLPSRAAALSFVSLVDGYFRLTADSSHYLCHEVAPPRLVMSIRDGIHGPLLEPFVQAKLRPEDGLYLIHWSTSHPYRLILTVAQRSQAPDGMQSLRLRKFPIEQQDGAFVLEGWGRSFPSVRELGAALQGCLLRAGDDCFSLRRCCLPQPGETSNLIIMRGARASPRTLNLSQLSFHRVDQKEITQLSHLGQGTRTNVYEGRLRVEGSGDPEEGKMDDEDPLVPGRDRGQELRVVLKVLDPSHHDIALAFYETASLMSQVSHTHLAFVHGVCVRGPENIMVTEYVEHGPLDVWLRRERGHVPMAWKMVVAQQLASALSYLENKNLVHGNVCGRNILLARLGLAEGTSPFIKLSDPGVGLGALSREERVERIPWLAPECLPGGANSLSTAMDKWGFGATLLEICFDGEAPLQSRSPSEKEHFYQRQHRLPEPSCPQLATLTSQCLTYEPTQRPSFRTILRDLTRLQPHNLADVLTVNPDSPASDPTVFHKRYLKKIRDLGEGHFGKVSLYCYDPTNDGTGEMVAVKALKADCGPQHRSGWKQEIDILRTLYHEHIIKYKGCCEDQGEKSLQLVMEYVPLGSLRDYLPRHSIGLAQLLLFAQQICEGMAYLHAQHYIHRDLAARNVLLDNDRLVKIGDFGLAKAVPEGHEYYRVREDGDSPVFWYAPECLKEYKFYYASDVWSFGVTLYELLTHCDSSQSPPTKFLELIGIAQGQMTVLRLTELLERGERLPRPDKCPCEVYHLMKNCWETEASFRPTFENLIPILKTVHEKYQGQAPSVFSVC

[37] = tested on: Tyrosine-protein kinase ABL1 (Homo sapiens), P00519 [T315I]; details: Compound concentration 1000.0 nM
[38] = target: Tyrosine-protein kinase JAK1 (Homo sapiens) (UniProt P23458); details: Compound concentration 1000.0 nM
[39] = target: Serine/threonine-protein kinase RIO2 (Homo sapiens) (UniProt Q9BVS4); details: Compound concentration 1000.0 nM
[40] = target: Mitogen-activated protein kinase kinase kinase 9 (Homo sapiens) (UniProt P80192); details: Compound concentration 1000.0 nM
[41] = target: Mitogen-activated protein kinase 13 (Homo sapiens) (UniProt O15264); details: Compound concentration 1000.0 nM
[42] = target: Mitogen-activated protein kinase kinase kinase kinase 1 (Homo sapiens) (UniProt Q92918); details: Compound concentration 1000.0 nM
NS3 protease = NS3 protease (Hepacivirus C, UniProt C1KIQ2); experiment: Enzymatic assay; set-up: species or system Hepacivirus hominis
[43] = target: Mitogen-activated protein kinase 9 (Homo sapiens) (UniProt P45984); details: Compound concentration 1000.0 nM
[44] = target: Receptor tyrosine-protein kinase erbB-2 (Homo sapiens) (UniProt P04626); details: Compound concentration 1000.0 nM
[45] = target: Mitogen-activated protein kinase 6 (Homo sapiens) (UniProt Q16659); details: Compound concentration 1000.0 nM
Mitogen-activated protein kinase 6 (Homo sapiens), sequence (Q16659 whole entry): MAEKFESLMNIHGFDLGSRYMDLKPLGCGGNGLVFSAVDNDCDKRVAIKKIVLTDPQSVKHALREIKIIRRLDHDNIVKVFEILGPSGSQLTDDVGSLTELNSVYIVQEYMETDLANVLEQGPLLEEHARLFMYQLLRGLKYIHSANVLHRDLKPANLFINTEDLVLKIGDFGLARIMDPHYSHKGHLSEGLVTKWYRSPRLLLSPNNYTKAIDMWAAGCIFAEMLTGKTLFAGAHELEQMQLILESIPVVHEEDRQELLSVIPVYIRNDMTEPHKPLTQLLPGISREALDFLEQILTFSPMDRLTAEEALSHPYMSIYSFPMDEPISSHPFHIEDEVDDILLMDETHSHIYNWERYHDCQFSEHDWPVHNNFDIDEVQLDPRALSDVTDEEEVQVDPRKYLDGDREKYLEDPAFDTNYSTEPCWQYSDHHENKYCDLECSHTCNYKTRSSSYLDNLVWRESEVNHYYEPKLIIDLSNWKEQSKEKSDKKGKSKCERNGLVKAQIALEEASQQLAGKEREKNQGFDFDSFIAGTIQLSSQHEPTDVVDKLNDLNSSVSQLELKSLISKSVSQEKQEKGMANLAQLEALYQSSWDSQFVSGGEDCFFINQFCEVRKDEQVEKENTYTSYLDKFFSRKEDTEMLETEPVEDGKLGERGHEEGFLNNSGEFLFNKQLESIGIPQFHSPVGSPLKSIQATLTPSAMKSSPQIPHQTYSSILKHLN

Rho-associated protein kinase 2 (Homo sapiens), sequence (O75116 whole entry, looked up): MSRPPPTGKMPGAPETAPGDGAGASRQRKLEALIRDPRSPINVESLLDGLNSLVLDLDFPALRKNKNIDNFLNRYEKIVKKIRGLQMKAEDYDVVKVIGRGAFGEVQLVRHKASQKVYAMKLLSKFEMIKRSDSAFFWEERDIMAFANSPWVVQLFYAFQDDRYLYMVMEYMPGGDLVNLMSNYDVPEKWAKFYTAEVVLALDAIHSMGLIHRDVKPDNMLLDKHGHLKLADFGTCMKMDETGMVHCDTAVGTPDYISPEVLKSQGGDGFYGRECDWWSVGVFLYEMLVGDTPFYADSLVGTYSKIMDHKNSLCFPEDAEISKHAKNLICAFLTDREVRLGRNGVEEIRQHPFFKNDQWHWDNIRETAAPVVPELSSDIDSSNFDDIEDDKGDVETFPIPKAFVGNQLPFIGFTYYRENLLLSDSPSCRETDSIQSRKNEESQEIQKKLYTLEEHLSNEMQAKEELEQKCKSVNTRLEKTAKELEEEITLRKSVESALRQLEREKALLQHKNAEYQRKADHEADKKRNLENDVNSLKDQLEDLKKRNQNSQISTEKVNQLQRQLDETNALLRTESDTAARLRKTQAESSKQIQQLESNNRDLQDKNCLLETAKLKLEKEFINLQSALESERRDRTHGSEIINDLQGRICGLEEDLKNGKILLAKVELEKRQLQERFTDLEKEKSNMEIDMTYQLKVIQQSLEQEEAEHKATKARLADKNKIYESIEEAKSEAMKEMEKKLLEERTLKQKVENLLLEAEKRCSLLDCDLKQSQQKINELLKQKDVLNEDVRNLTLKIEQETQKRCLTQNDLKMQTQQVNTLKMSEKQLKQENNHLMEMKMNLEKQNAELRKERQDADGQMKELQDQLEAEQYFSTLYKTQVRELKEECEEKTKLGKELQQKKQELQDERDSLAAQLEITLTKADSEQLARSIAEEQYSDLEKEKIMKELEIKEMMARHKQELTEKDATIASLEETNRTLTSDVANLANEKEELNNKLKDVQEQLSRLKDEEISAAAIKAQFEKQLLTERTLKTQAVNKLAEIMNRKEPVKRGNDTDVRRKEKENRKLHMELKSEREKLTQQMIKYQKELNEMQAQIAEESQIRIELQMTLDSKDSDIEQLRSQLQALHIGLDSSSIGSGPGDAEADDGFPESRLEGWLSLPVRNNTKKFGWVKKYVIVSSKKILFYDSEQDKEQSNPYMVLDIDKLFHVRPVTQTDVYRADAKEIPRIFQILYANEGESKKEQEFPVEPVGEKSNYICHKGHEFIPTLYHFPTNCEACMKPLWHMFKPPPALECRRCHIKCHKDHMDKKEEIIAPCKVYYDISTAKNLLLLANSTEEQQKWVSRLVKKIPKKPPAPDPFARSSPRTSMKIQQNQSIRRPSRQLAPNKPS

COc1ccc2c(O[C@@H]3C[C@H]4C(=O)N[C@]5(C(=O)O)CC5/C=C\CCCCC[C@H](NC(=O)OC5CCCC5)C(=O)N4C3)cc(-c3csc(NC(=O)C(C)C)n3)nc2c1C (some centres not stated) [BI 1230]
residual activity [1]: 95% | residual activity [2]: 100% | residual activity [3]: 88% | residual activity [4]: 100% | inhibition [5]: 32.5% | residual activity [6]: 100% | residual activity [7]: 69% | residual activity [8]: 90% | residual activity [9]: 100% | residual activity [10]: 68% | residual activity [11]: 100% | residual activity [12]: 100% | residual activity [13]: 100% | residual activity [14]: 100% | residual activity [15]: 100% | residual activity [16]: 77% | residual activity [17]: 99% | residual activity [18]: 100% | residual activity [19]: 100% | residual activity [20]: 100% | residual activity [21]: 100% | inhibition [22]: 10.2% | residual activity [23]: 100% | inhibition [24]: -9.2% | residual activity [25]: 87% | residual activity [26]: 100% | residual activity [27]: 100% | residual activity [28]: 81% | residual activity [29]: 99% | residual activity [30]: 100% | residual activity [31]: 80% | residual activity [32]: 99% | residual activity [33]: 100% | residual activity [34]: 97% | residual activity [35]: 90% | residual activity [36]: 100% | residual activity [37]: 87% | residual activity [38]: 100% | residual activity [39]: 100% | residual activity [40]: 100% | residual activity [41]: 100% | residual activity [42]: 100% | IC50 (NS3 protease): 6.7 nM (active) | residual activity [43]: 71% | residual activity [44]: 97% | residual activity [45]: 93%

O=C(N[C@H]1CCCCC/C=C\C2C[C@@]2(C(=O)O)NC(=O)[C@@H]2C[C@@H](Oc3ccncc3)CN2C1=O)OC1CCCC1 (some centres not stated) [BI 1675]
residual activity [1]: 100% | residual activity [2]: 90% | residual activity [3]: 100% | residual activity [4]: 93% | inhibition [5]: 3.22% | residual activity [6]: 100% | residual activity [7]: 92% | residual activity [8]: 89% | residual activity [9]: 100% | residual activity [10]: 66% | residual activity [11]: 100% | residual activity [12]: 100% | residual activity [13]: 100% | residual activity [14]: 100% | residual activity [15]: 87% | residual activity [16]: 81% | residual activity [17]: 99% | residual activity [18]: 100% | residual activity [19]: 100% | residual activity [20]: 100% | residual activity [21]: 100% | inhibition [22]: 9.48% | residual activity [23]: 83% | inhibition [24]: 12.7% | residual activity [25]: 100% | residual activity [26]: 94% | residual activity [27]: 100% | residual activity [28]: 100% | residual activity [29]: 100% | residual activity [30]: 97% | residual activity [31]: 80% | residual activity [32]: 100% | residual activity [33]: 83% | residual activity [34]: 100% | residual activity [35]: 91% | residual activity [36]: 98% | residual activity [37]: 84% | residual activity [38]: 96% | residual activity [39]: 100% | residual activity [40]: 97% | residual activity [41]: 96% | residual activity [42]: 93% | IC50 (NS3 protease): 4870 nM (not active) | residual activity [43]: 94% | residual activity [44]: 100% | residual activity [45]: 92%
